Measured values as given in patent publication EP2871962B1, “WOOD PROTECTION AGAINST MICROORGANISMS BY LACCASE-CATALYSED IODINATION” (EMPA Eidgenössische Materialprüfungs- und Forschungsanstalt, priority 2012, dated 2013).
Several values for one entry are separate records, joined by “and”; a condition that tells them apart may be missing. Equal values may be shown once.

Tests used:
[1] = test system: S. aureus; test: Biotests 1: stamping test of treated, leached wood on agar; format: cell-based, Staphylococcus aureus (ATCC 6583); settings: wood batch 1 exposed to leaching; 18h contact; mean of grades 0-4 ±SE, n = 3; Mediator = ABTS (10 µM)
Method: (§1) Wood specimens (batch 1: 10 x 10 x 5 mm, length x width x height used in the biotests 1 and batch 2: 20 x 15 x 10 mm used in the biotests 2), free of defects, were extracted longitudinally from boards of Norway spruce trees grown in Switzerland, in order to minimize the influence of natural variability. All specimens were conditioned at 23C°(±1°C) and 50% (±5%) relative humidity (RH) until they reached an equilibrium moisture content of approximately 8-10%. Prior to the wood treatment the specimens were sterilized by autoclaving for 20min at 121°C(±1°C). […]
(§2) The evaluation of the antimicrobial activity against the bacteria E. coli and S. aureus and the yeast S. cerevisiae of the iodinated and polymerised wood was performed in biotests 1. […] Growth on agar plates was visually determined after incubation for 20-28h at the optimal temperature, giving the following growth values: 0 = no growth; 1 = weak growth; 2 = intermediate growth; 3 = strong growth and 4 = stamping area completely overgrown.

[2] = test system: E. coli; test: as above; format: cell-based, Escherichia coli (ATCC 11229); settings: wood batch 1 exposed to leaching; 18h contact; mean of grades 0-4 ±SE, n = 3; Mediator = ABTS (10 µM)
Method: as §1, §2

[3] = test system: A. pullulans, C. picea, C. herbarum and D. pinicola; test: Biotests 2: blue stain test of treated wood (EN 152-2, modified); format: cell-based; settings: 6 weeks of incubation, mean of stain categories 0-5 ±SE, n = 6, Mediator = ACS (50 µM); for Blue stain discoloration, Leached: wood batch 2, leached (EN 84)
Method: (§3) Wood specimens (batch 1: 10 x 10 x 5 mm, length x width x height used in the biotests 1 and batch 2: 20 x 15 x 10 mm used in the biotests 2), free of defects, were extracted longitudinally from boards of Norway spruce trees grown in Switzerland, in order to minimize the influence of natural variability. All specimens were conditioned at 23C°(±1°C) and 50% (±5%) relative humidity (RH) until they reached an equilibrium moisture content of approximately 8-10%. Prior to the wood treatment the specimens were sterilized by autoclaving for 20min at 121°C(±1°C).
The enzymatic wood iodination and polymerisation were carried out by dipping three wood specimens of batch 1 in 30ml or 12 wood specimens of batch 2 in 200ml reaction solution (pH 4-6) containing one of the phenolic compounds (4mM), or potassium iodide (1 or 50mM) in the presence of laccase ([…]) for 18h at room temperature. Furthermore, to test the suitability of HBA (5mM) as mediator some additional experiments were performed. The chemical preservative VP 7/ 260a containing IPBC and propiconazole as active agents was used as a benchmark with a final concentration of 5% (v/v). The wood specimens were treated and used in the biological tests, with the following modifications: • Control = Wood treated with buffer • L = Wood treated with laccase alone • L-M = Wood treated with laccase and mediator • Iso = Wood treated with isoeugenol • Iso-L = Wood treated with isoeugenol and laccase • Iso-L-M = Wood treated with isoeugenol, laccase and mediator • Thy = Wood treated with thymol • Thy-L = Wood treated with thymol and laccase • Thy-L-M = Wood treated with thymol and laccase and mediator • Ix = Wood treated with 1 or 50mM iodide (x = concentration of iodide) • Ix-L = Wood treated with 1 or 50mM iodide and laccase • Ix-L-M = Wood treated with 1 or 50mM iodide, laccase and mediator • VP7 = Wood treated with VP 7/ 260a (IPBC and propiconazole)
After the reaction all wood specimens of batch 1 had undergone a leaching procedure comprising five cycles of incubation in ddH2O (liquid volume min. 10 times the specimen volume, 100rpm, room temperature, 24h) and water exchange. Half of the wood specimens of batch 2 were exposed to leaching for two weeks including nine steps of water changing according to EN 84 (29), the other half was used without leaching in biotests.
The resistance of the treated wood against blue stain and wood decay fungi was determined in biotests 2 according to the European standards EN 152-2 (30) and EN 113 (31) with slight modifications. The EN 152 is a classical test for blue staining, originally intended to determine the effectiveness of a preservative treatment against blue stain in service. The treated wood samples were dipped into a spore suspension of A. pullulans, C. picea, C. herbarum and D. pinicola (cfu: > 10^5) and placed horizontally in a Kolle flask containing vermiculite (18g) which was inoculated additionally with 40ml of the spore suspension. The incubated specimens were stored in an incubation room at 22°C and 70% RH (6 weeks). After incubation the surface was evaluated by classifying the percentage of blue-stain discolouration from 0 to 5 according to Thwaites et al. (32) (Table 1). Table 1: Determination of the blue stain discoloration

[4] = test system: S. cerevisiae; test: Biotests 1: stamping test of treated, leached wood on agar; format: cell-based, Saccharomyces cerevisiae A.C. van Wijk (DSM 70449); settings: wood batch 1 exposed to leaching; 18h contact; mean of grades 0-4 ±SE, n = 3; Mediator = ABTS (10 µM)
Method: as §1, §2

[5] = test system: T. versicolor; test: Biotests 2: mini-wood block decay test (comparable with EN 113), mass loss; format: cell-based, Trametes versicolor; settings: wood batch 2, non-leached and leached, 12 weeks incubation; numbers only in Figure 2
Method: as §3
(§4) The enzymatic wood iodination and polymerisation were carried out by dipping three wood specimens of batch 1 in 30ml or 12 wood specimens of batch 2 in 200ml reaction solution (pH 4-6) containing one of the phenolic compounds (4mM), or potassium iodide (1 or 50mM) in the presence of laccase (10U ml^-1) and either 10µM ABTS for batch 1 or 100µM ACS for batch 2 under shaking (100rpm) for 18h at room temperature. […]
(§5) The treated wood was aseptically added to fully colonised Petri dishes (135mm diameter, 2% malt extract agar (MEA)) by O. placenta and T. versicolor respectively and incubated at 22C° and 70% RH. The ability of the wood-decay fungi to degrade the wood was determined gravimetrically after incubation periods of 6 and 12 weeks and expressed as mass loss (%) according to EN 113 (31): Mass loss(%) = (m0 −m1)/(m0)⋅100 [formula] […]

[6] = test system: A. alternata; test: Growth inhibition on supplemented malt extract agar plates (Example 1); format: cell-based; settings: 2% MEA; phenolic derivatives 4mM, VP 7/ 260a 5% (v/v); without wood; ±SE, n = 3
[7] = test system: D. pinicola; test: as above; format: cell-based, Discula pinicola; settings: 2% MEA; phenolic derivatives 4mM, VP 7/ 260a 5% (v/v); without wood; ±SE, n = 3
Method: (§6) In addition to the mentioned biotests 2 the antimicrobial activity of the reaction derivatives without wood was evaluated on agar plates (5), excluding the laccase-catalysed iodine solution. It was assumed that the iodine molecules would react with starch from malt to form polyiodide chains, which would prevent the antimicrobial effect (33). The laccase catalysis of the phenols was performed under shaking for 18h at room temperature as described above and the phenolic derivatives were added to 2% MEA after autoclaving to a final concentration of 4mM. The fungicide VP 7/ 260a were added to a concentration of 5% (v/v). The supplemented Petri dishes were inoculated in the centre with a mycelium agar disc (5mm diameter) taken from the sub-margin of 14 day old cultures of the ascomycetes A. pullulans and D. pinicola and the basidiomycetes O. placenta and T. versicolor. The fungal growth was estimated by measuring the colony diameter and the growth inhibition was expressed as % of reference grown on non-supplemented malt agar.

[8] = test system: O. placenta; test: as above; format: cell-based, Oligoporus placenta; settings: 2% MEA; phenolic derivatives 4mM, VP 7/ 260a 5% (v/v); without wood; ±SE, n = 3
Method: as §6

[9] = test system: T. versicolor; test: as above; format: cell-based, Trametes versicolor; settings: 2% MEA; phenolic derivatives 4mM, VP 7/ 260a 5% (v/v); without wood; ±SE, n = 3
Method: as §6

[10] = test system: O. placenta; test: Biotests 2: mini-wood block decay test (comparable with EN 113), mass loss; format: cell-based, Oligoporus placenta; settings: wood batch 2, non-leached and leached, 12 weeks incubation; numbers only in Figure 2
Method: as §3, §4, §5

Compound	Growth values after stamping, S. aureus [1]	Growth values after stamping, E. coli [2]	Blue stain discoloration, Leached [3]	Blue stain discoloration, Non-leached ([3]; wood batch 2, non-leached)	Growth values after stamping, S. cerevisiae [4]	mass loss of wood caused by T. versicolor (result in words) [5]	Growth inhibition [%] on agar plate compared to control, A. alternata [6] [%]	Growth inhibition [%] on agar plate compared to control, D. pinicola [7] [%]	Growth inhibition [%] on agar plate compared to control, O. placenta [8] [%]	Growth inhibition [%] on agar plate compared to control, T. versicolor [9] [%]	mass loss of wood caused by O. placenta (result in words) [10]
[I-].[K+] [I50, potassium iodide]	3.0 ±0.6	4.0 ±0.0	3.3 ±0.3	0.8 ±0.4	2.7 ±0.3						
CC=Cc1ccc(O)c(OC)c1 [Iso, isoeugenol]		4.0 and 4.0 ±0.0	3.4 and 3.4 ±0.5			minor effect	100 ±0.0	100 ±0.0	100 ±0.0	100 ±0.0	minor effect
